Experimental data as given in ChEMBL document CHEMBL1201862, “PubChem BioAssay data set” (2004).
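A five-concentration, 48-hour dose response in 96-well plates underlies each endpoint, interpolated linearly between surrounding concentrations. The concentration for 50% growth inhibition is given as GI50.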 Active and inactive are the calls of the source. No stated cut-off is given here; in the data, active = GI50 up to about 1.1 µM and inactive = higher.

Tests used:
Experiment in all cases: NCI tumour cell line growth inhibition, 48 h
XF498 = tested on: XF498
DLD-1 = tested on: DLD-1
RXF 631 = tested on: RXF 631
LXFL 529 = tested on: LXFL 529
DMS-114 = tested on: DMS-114
HOP-18 = tested on: HOP-18
SNB-78 = tested on: SNB-78
KM-20L2 = tested on: KM-20L2
DMS-273 = tested on: DMS-273

Measured: GI50

COC(=O)C(CCC1(C)OCCO1)=[N+]=[N-]
inactive: XF498 > 100 µM | DLD-1 > 100 µM | RXF 631 > 100 µM | LXFL 529 > 100 µM | DMS-114 > 100 µM | HOP-18 > 100 µM | SNB-78 > 100 µM | KM-20L2 > 100 µM | DMS-273 > 100 µM

Nc1nccc2c1ncn2C1C=C(CO)C(O)C1O (stereo unspecified)
inactive: XF498 > 46 µM | DLD-1 63.4 µM | RXF 631 83.6 µM | LXFL 529 > 89.1 µM | DMS-114 13.9 µM | HOP-18 > 96.6 µM | SNB-78 > 100 µM | KM-20L2 > 87.1 µM | DMS-273 25.6 µM

CCOC(=O)C(C)c1cc(C2(C)OCCO2)c(C)o1 (stereo unspecified)
inactive: XF498 > 100 µM | DLD-1 > 100 µM | RXF 631 > 100 µM | LXFL 529 > 100 µM | DMS-114 > 100 µM | HOP-18 > 100 µM | SNB-78 > 100 µM | KM-20L2 > 100 µM | DMS-273 > 100 µM

C/C=C/C[C@@H](C)[C@@H](O)[C@H]1C(=O)N[C@@H](CC)C(=O)N(C)CC(=O)N(C)[C@@H](CC(C)C)C(=O)N[C@@H](C(C)C)C(=O)N(C)[C@@H](CC(C)C)C(=O)N[C@@H](C)C(=O)N[C@H](C)C(=O)N(C)[C@@H](CC(C)C)C(=O)N(C)[C@@H](CC(C)C)C(=O)N(C)[C@@H](C(C)C)C(=O)N1C [CYCLOSPORINE]
inactive: XF498 3.96 µM | DLD-1 5.32 µM | RXF 631 1.98 µM | LXFL 529 6.89 µM | DMS-114 3.7 µM | HOP-18 11.1 µM | SNB-78 4.98 µM | KM-20L2 2.97 µM | DMS-273 4.7 µM

COc1nc2c(nc(N)n2C2OC(CO)C(O)C(O)C2O)c(=O)n1C (stereo unspecified)
inactive: XF498 75.3 µM | DLD-1 > 100 µM | RXF 631 > 100 µM | LXFL 529 > 100 µM | DMS-114 > 100 µM | HOP-18 > 100 µM | SNB-78 > 100 µM | KM-20L2 > 100 µM

CC1=C(/C=C/C(C)=C/C2CC(N(C)C)=CC(=O)O2)C(C)(C)CCC1 (stereo unspecified)
inactive: XF498 12.4 µM | DLD-1 15.3 µM | RXF 631 13.1 µM | LXFL 529 11.7 µM | DMS-114 10.8 µM | HOP-18 13.6 µM | SNB-78 19.5 µM | DMS-273 13.4 µM

C/C(=N\NC(N)=S)c1ccc(/C(C)=N/NC(N)=S)cc1
inactive: XF498 > 100 µM | DLD-1 > 100 µM | RXF 631 > 100 µM | LXFL 529 > 100 µM | DMS-114 > 100 µM | HOP-18 > 100 µM | KM-20L2 > 100 µM

C=C1C(=O)OC2/C=C(\COC(C)=O)CCC(OC(C)=O)C3=CC(OC3=O)C12 (stereo unspecified)
inactive: XF498 2.39 µM | DLD-1 2.33 µM | RXF 631 8.13 µM | LXFL 529 1.67 µM | DMS-114 1.47 µM | SNB-78 2.67 µM | KM-20L2 6.98 µM | DMS-273 6.81 µM

CCCCCCCCCCCCOC(=S)NCCCC
inactive: XF498 16.4 µM | DLD-1 29.4 µM | RXF 631 20.7 µM | LXFL 529 28.1 µM | DMS-114 19.7 µM | HOP-18 28.1 µM | SNB-78 34.4 µM | KM-20L2 18.7 µM | DMS-273 18.3 µM
